US20100119599A1 (ARCHER PHARMACEUTICALS, INC., priority 2006, published 2010)

Columns and labels:
Aβ1-40 = assay: Measurement of Aβ1-40 in culture medium of 7W WT APP751 CHO cells by ELISA; type: cell-based, Chinese hamster
Aβ1-42 = assay: Measurement of Aβ1-42 in culture medium of 7W WT APP751 CHO cells by ELISA; type: cell-based, Chinese hamster
[1] = CHO cells that overexpress APP751, zero = below the detection limit of the assay
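Further: 5 µM test compound but RI-coded compounds at 10 µM for 24 hours.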

For `CC1=C(C(=O)Nc2ccccc2)C(c2c(Cl)cccc2Cl)C(C(=O)Nc2ccccc2)=C(C)N1` [ST217080, [4-(2,6-dichlorophenyl)-2,6-dimethyl-5-(N-phenylcarbamoyl)(3-1,4-dihydropyridyl)]-N-benzamide], the “Aβ1-40 (% of control)” value (Aβ1-40; [1]) was 65.54 % of control and the “Aβ1-42 (% of control)” value (Aβ1-42; [1]) was 0 % of control.

`CCCCCOC(=O)C1=C(C)NC2=C(C(=O)CC(C)(C)C2)C1c1ccc(OCCC)cc1` (stereo not shown) [ST217244, pentyl 2,7,7-trimethyl-5-oxo-4-(4-propoxyphenyl)-1,4,6,7,8-pentahydroquinoline-3-carboxylate] was tested, and the activity at 5 µM (Aβ1-40; Cricetulus griseus, Table 1, 5 μM test compound, CHO cells stably transfected with human APP751, culture medium, ELISA, control DMSO, 0 = no detectable amount) was 24.9% and the activity at 5 µM (Aβ1-42; Cricetulus griseus, Table 1, 5 μM test compound, CHO cells stably transfected with human APP751, culture medium, ELISA, control DMSO, 0 = no detectable amount, read-out: Aβ1-42 (% of control)) was 41.5%.
